Measured values from patent US12252524B2, “GIP/GLP1 co-agonist compounds” (Eli Lilly and Company, priority 2018, dated 2025).
Numbered stars: 1 amine (or outer) side, 2 acyl side, 3 side chain; on linkers, the order of the positions; unused ones are H or OH. Square brackets hold non-standard residues; d marks the D form. Side chains are listed from the residue outwards. Peptide text beside a SMILES is read from it. * marks the point of attachment. C20 diacid = O=C(O)CCCCCCCCCCCCCCCCCCC(=O)*; αMePhe(2-F) = C[C@](N)(Cc1ccccc1F)C(=O)O; γGlu = O=C(O)[C@H](CCC(=O)[*:2])N[*:1]; αMeF = C[C@](N)(Cc1ccccc1)C(=O)O; Aad = N[C@@H](CCCC(=O)O)C(=O)O; αMeL = CC(C)C[C@](C)(N)C(=O)O; AEEA = NCCOCCOCC(=O)O; Aib = CC(C)(N)C(=O)O

Columns and labels:
human Gcg receptor = target: T1, human Gcg receptor (Homo sapiens, UniProt P47871); test: [125I]-Glucagon binding (SPA), human Gcg receptor; conditions: read-out: hGLcgR Ki, nM (SEM, n)
T1 construct: expressed in transfected cells; crude membranes
T1 sequence (P47871 26-477): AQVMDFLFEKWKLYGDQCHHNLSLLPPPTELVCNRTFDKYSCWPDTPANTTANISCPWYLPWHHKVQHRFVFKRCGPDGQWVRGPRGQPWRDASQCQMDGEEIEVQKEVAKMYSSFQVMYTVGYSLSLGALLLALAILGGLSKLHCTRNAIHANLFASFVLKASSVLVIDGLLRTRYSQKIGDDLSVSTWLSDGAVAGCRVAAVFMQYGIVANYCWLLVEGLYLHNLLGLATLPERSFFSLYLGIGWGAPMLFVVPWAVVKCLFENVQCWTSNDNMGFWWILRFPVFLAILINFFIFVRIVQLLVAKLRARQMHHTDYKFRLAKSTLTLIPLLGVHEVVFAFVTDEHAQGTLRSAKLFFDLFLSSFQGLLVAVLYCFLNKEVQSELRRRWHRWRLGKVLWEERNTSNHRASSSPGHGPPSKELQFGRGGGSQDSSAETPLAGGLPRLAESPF
Outline: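 Cell pellets were lysed in hypotonic Tris buffer, pH 7.5, homogenized, and spun at low then high speed to give crude membranes. Ki was derived from the fitted IC50.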

human GIP receptor = target: T2, human GIP receptor (Homo sapiens, UniProt P48546); test: [125I]-GIP binding (SPA), human GIP receptor; conditions: read-out: hGIPR Ki, nM (SEM, n)
T2 construct: expressed in transfected cells; crude membranes
T2 sequence (P48546 22-466): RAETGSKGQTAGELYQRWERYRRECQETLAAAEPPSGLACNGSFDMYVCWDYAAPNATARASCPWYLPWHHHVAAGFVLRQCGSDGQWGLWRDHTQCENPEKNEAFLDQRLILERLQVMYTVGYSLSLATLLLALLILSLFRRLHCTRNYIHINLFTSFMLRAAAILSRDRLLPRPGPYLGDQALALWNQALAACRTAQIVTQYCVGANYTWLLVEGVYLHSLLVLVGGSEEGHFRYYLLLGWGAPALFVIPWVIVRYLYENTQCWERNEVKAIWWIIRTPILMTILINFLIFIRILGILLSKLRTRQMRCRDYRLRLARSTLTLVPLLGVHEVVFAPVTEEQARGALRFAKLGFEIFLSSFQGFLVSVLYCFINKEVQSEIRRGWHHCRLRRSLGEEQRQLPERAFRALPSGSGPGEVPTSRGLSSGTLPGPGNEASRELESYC

[1] = target: human GLP-1 receptor (GLP-1R) (Homo sapiens, UniProt P43220); test: cAMP pharmacological functional assay in presence of casein, hGLP-1R; format: cell-based; conditions: HEK293 cells expressing hGLP-1R, 0.1% Casein, geometric mean; read-out: hGLP1R cAMP Rel EC50 nM (SEM, n)
human GLP-1 receptor (GLP-1R), sequence (P43220 24-463): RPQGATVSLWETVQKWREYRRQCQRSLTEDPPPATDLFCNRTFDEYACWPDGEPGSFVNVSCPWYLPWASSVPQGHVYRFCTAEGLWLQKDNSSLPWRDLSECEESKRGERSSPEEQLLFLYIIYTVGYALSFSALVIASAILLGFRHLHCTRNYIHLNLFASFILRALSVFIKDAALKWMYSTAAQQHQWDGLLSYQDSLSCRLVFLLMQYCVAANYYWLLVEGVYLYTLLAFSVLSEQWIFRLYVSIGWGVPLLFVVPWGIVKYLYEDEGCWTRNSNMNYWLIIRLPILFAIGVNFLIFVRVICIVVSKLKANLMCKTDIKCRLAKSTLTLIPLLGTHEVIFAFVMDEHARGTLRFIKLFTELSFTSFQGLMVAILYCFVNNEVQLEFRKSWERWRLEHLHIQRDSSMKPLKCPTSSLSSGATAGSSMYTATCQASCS

[2] = target: T3, gastric inhibitory peptide receptor (GIPR) (Homo sapiens, UniProt P48546); test: cAMP pharmacological functional assay in presence of casein, hGIPR; format: cell-based; conditions: HEK293 cells expressing hGIPR, 0.1% Casein, geometric mean; read-out: hGIPR cAMP Rel EC50 nM (SEM, n)
T3 sequence (P48546 22-466): T2 sequence (P48546 22-466)

human GLP-1R = human GLP-1R (Homo sapiens, UniProt P43220); test: [125I]-GLP-1 binding (SPA), human GLP-1 receptor; parameters: expressed in transfected cells; crude membranes; conditions: read-out: hGLP1R Ki, (nM) (SEM, n)
human GLP-1R, sequence (P43220 24-463): as above
Outline: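 Ki values are geometric means with SEM over independent replicates on different days, derived from IC50s fitted by four-parameter nonlinear regression. The assay used crude cell membranes in HEPES buffer, pH 7.4, containing CaCl2, MgCl2, bacitracin and TWEEN-20.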

| Structure (SMILES) | Ki (human Gcg receptor) [nM] | Ki (human GIP receptor) [nM] | EC50 [1] [nM] | EC50 [2] [nM] | Ki (human GLP-1R) [nM] |
| --- | --- | --- | --- | --- | --- |
| CC[C@H](C)[C@H](NC(=O)[C@H](CC(C)C)NC(=O)[C@H](Cc1ccc(O)cc1)NC(=O)[C@H](CCC(=O)O)NC(=O)[C@@H](NC(=O)[C@H](Cc1ccccc1)NC(=O)C(C)(C)NC(=O)C(C)(C)NC(=O)[C@H](CCC(N)=O)NC(=O)[C@H](C)NC(=O)[C@H](CCCCNC(=O)COCCOCCNC(=O)COCCOCCNC(=O)CC[C@H](NC(=O)CCCCCCCCCCCCCCCCCCC(=O)O)C(=O)O)NC(=O)[C@H](CCCCN)NC(=O)[C@H](CC(=O)O)NC(=O)[C@H](CC(C)C)NC(=O)[C@](C)(CC(C)C)NC(=O)[C@@H](NC(=O)[C@H](CO)NC(=O)[C@H](Cc1ccc(O)cc1)NC(=O)[C@H](CC(=O)O)NC(=O)[C@H](CO)NC(=O)[C@@H](NC(=O)[C@](C)(Cc1ccccc1)NC(=O)[C@@H](NC(=O)CNC(=O)[C@H](CCC(=O)O)NC(=O)C(C)(C)NC(=O)[C@@H](N)Cc1ccc(O)cc1)[C@@H](C)O)[C@@H](C)O)[C@@H](C)CC)[C@@H](C)CC)C(=O)N[C@@H](CCC(=O)O)C(=O)NCC(=O)NCC(=O)N1CCC[C@H]1C(=O)N[C@@H](CO)C(=O)N[C@@H](CO)C(=O)NCC(=O)N[C@@H](C)C(=O)N1CCC[C@H]1C(=O)N1CCC[C@H]1C(=O)N1CCC[C@H]1C(=O)N[C@@H](CO)C(N)=O [Example 143] (H-Y[Aib]EGT[αMeF]TSDYSI[αMeL]LDKK([AEEA-AEEA-γGlu-C20 diacid])AQ[Aib][Aib]FIEYLIEGGPSSGAPPPS-NH2) | 65.5 | 0.0304 | 0.0745 | 0.0515 | 1.15 |
| CC[C@H](C)[C@H](NC(=O)[C@H](CC(C)C)NC(=O)[C@H](Cc1ccc(O)cc1)NC(=O)[C@H](CCC(=O)O)NC(=O)[C@@H](NC(=O)[C@H](Cc1ccccc1)NC(=O)C(C)(C)NC(=O)[C@H](Cc1c[nH]cn1)NC(=O)[C@H](CCC(N)=O)NC(=O)[C@H](C)NC(=O)[C@H](CCCCNC(=O)COCCOCCNC(=O)COCCOCCNC(=O)CC[C@H](NC(=O)CCCCCCCCCCCCCCCCCCC(=O)O)C(=O)O)NC(=O)[C@H](CCCCN)NC(=O)[C@H](CC(=O)O)NC(=O)[C@H](CC(C)C)NC(=O)[C@](C)(CC(C)C)NC(=O)[C@@H](NC(=O)[C@H](CO)NC(=O)[C@H](Cc1ccc(O)cc1)NC(=O)[C@H](CC(=O)O)NC(=O)[C@H](CO)NC(=O)[C@@H](NC(=O)[C@](C)(Cc1ccccc1)NC(=O)[C@@H](NC(=O)CNC(=O)[C@H](CCC(=O)O)NC(=O)C(C)(C)NC(=O)[C@@H](N)Cc1ccc(O)cc1)[C@@H](C)O)[C@@H](C)O)[C@@H](C)CC)[C@@H](C)CC)C(=O)N[C@@H](CCC(=O)O)C(=O)NCC(=O)NCC(=O)N1CCC[C@H]1C(=O)N[C@@H](CO)C(=O)N[C@@H](CO)C(=O)NCC(=O)N[C@@H](C)C(=O)N1CCC[C@H]1C(=O)N1CCC[C@H]1C(=O)N1CCC[C@H]1C(=O)N[C@@H](CO)C(N)=O [Example 144] (H-Y[Aib]EGT[αMeF]TSDYSI[αMeL]LDKK([AEEA-AEEA-γGlu-C20 diacid])AQH[Aib]FIEYLIEGGPSSGAPPPS-NH2) | 77 | 0.0341 | 0.0608 | 0.0375 | 1.78 |
| CC[C@H](C)[C@H](NC(=O)[C@H](CC(C)C)NC(=O)[C@H](Cc1ccc(O)cc1)NC(=O)[C@H](CCC(=O)O)NC(=O)[C@@H](NC(=O)[C@H](Cc1ccccc1)NC(=O)[C@H](C)NC(=O)C(C)(C)NC(=O)[C@H](CCC(N)=O)NC(=O)[C@H](C)NC(=O)[C@H](CCCCNC(=O)COCCOCCNC(=O)COCCOCCNC(=O)CC[C@H](NC(=O)CCCCCCCCCCCCCCCCCCC(=O)O)C(=O)O)NC(=O)[C@H](CCCCN)NC(=O)[C@H](CC(=O)O)NC(=O)[C@H](CC(C)C)NC(=O)[C@](C)(CC(C)C)NC(=O)[C@@H](NC(=O)[C@H](CO)NC(=O)[C@H](C)NC(=O)[C@H](CC(=O)O)NC(=O)[C@H](CO)NC(=O)[C@@H](NC(=O)[C@](C)(Cc1ccccc1)NC(=O)[C@@H](NC(=O)CNC(=O)[C@H](CCC(=O)O)NC(=O)C(C)(C)NC(=O)[C@@H](N)Cc1ccc(O)cc1)[C@@H](C)O)[C@@H](C)O)[C@@H](C)CC)[C@@H](C)CC)C(=O)N[C@@H](CCC(=O)O)C(=O)NCC(=O)NCC(=O)N1CCC[C@H]1C(=O)N[C@@H](CO)C(=O)N[C@@H](CO)C(=O)NCC(=O)N[C@@H](C)C(=O)N1CCC[C@H]1C(=O)N1CCC[C@H]1C(=O)N1CCC[C@H]1C(=O)N[C@@H](CO)C(N)=O [Example 145] (H-Y[Aib]EGT[αMeF]TSDASI[αMeL]LDKK([AEEA-AEEA-γGlu-C20 diacid])AQ[Aib]AFIEYLIEGGPSSGAPPPS-NH2) | 158 | 0.0652 | 0.0427 | 0.0514 | 2.22 |
| CC[C@H](C)[C@H](NC(=O)[C@H](CC(C)C)NC(=O)[C@H](Cc1ccc(O)cc1)NC(=O)[C@H](CCCC(=O)O)NC(=O)[C@@H](NC(=O)[C@H](Cc1ccccc1)NC(=O)[C@H](CCC(=O)O)NC(=O)C(C)(C)NC(=O)[C@H](CCC(N)=O)NC(=O)[C@H](C)NC(=O)[C@H](CCCCNC(=O)COCCOCCNC(=O)COCCOCCNC(=O)CC[C@H](NC(=O)CCCCCCCCCCCCCCCCCCC(=O)O)C(=O)O)NC(=O)[C@H](CCC(=O)O)NC(=O)[C@H](CC(=O)O)NC(=O)[C@H](CC(C)C)NC(=O)[C@](C)(CC(C)C)NC(=O)[C@@H](NC(=O)[C@H](CO)NC(=O)[C@H](Cc1ccc(O)cc1)NC(=O)[C@H](CC(=O)O)NC(=O)[C@H](CO)NC(=O)[C@@H](NC(=O)[C@](C)(Cc1ccccc1F)NC(=O)[C@@H](NC(=O)CNC(=O)[C@H](CCC(=O)O)NC(=O)C(C)(C)NC(=O)[C@@H](N)Cc1ccc(O)cc1)[C@@H](C)O)[C@@H](C)O)[C@@H](C)CC)[C@@H](C)CC)C(=O)N[C@@H](CCC(=O)O)C(=O)NCC(=O)NCC(=O)N1CCC[C@H]1C(=O)N[C@@H](CO)C(=O)N[C@@H](CO)C(=O)NCC(=O)N[C@@H](C)C(=O)N1CCC[C@H]1C(=O)N1CCC[C@H]1C(=O)N1CCC[C@H]1C(=O)N[C@@H](CO)C(N)=O [Example 147] (H-Y[Aib]EGT[αMePhe(2-F)]TSDYSI[αMeL]LDEK([AEEA-AEEA-γGlu-C20 diacid])AQ[Aib]EFI[Aad]YLIEGGPSSGAPPPS-NH2) | 64.9 | 0.0981 | 0.0527 | 0.0304 | 4.47 |
| CC[C@H](C)[C@H](NC(=O)[C@H](CC(C)C)NC(=O)[C@H](Cc1ccc(O)cc1)NC(=O)[C@@H](NC(=O)[C@@H](NC(=O)[C@H](Cc1ccccc1)NC(=O)[C@H](CCC(=O)O)NC(=O)C(C)(C)NC(=O)[C@H](CCC(N)=O)NC(=O)[C@H](C)NC(=O)[C@H](CCCCNC(=O)COCCOCCNC(=O)COCCOCCNC(=O)CC[C@H](NC(=O)CCCCCCCCCCCCCCCCCCC(=O)O)C(=O)O)NC(=O)[C@H](CCC(=O)O)NC(=O)[C@H](CC(=O)O)NC(=O)[C@H](CC(C)C)NC(=O)[C@](C)(CC(C)C)NC(=O)[C@@H](NC(=O)[C@H](CO)NC(=O)[C@H](Cc1ccc(O)cc1)NC(=O)[C@H](CC(=O)O)NC(=O)[C@H](CO)NC(=O)[C@@H](NC(=O)[C@](C)(Cc1ccccc1F)NC(=O)[C@@H](NC(=O)CNC(=O)[C@H](CCC(=O)O)NC(=O)C(C)(C)NC(=O)[C@@H](N)Cc1ccc(O)cc1)[C@@H](C)O)[C@@H](C)O)[C@@H](C)CC)[C@@H](C)CC)C(C)C)C(=O)N[C@@H](CCC(=O)O)C(=O)NCC(=O)NCC(=O)N1CCC[C@H]1C(=O)N[C@@H](CO)C(=O)N[C@@H](CO)C(=O)NCC(=O)N[C@@H](C)C(=O)N1CCC[C@H]1C(=O)N1CCC[C@H]1C(=O)N1CCC[C@H]1C(=O)N[C@@H](CO)C(N)=O [Example 149] (H-Y[Aib]EGT[αMePhe(2-F)]TSDYSI[αMeL]LDEK([AEEA-AEEA-γGlu-C20 diacid])AQ[Aib]EFIVYLIEGGPSSGAPPPS-NH2) | 127 | 0.0708 | 0.0916 | 0.0711 | 26.1 |
